What is called EC50 is the concentration that produces a half-maximal response.

Molecules are shown by their SMILES.

One assay relates to HIV-1 (H9IIIB strain). The assay can be described thus: Antiviral acute infection assay in cell culture (Spread). Format: cell-based. The following applies: Human immunodeficiency virus 1, T-lymphoid, HIV-1 H9IIIB infection of MT-4 human T-lymphoid cells in 10% FBS; mean of at least two independent experiments. From the text: Antiviral Assays in Cell Culture (“Spread”)
Acute Infection Assay (“Spread”) data were generated using HIV-1 (H9IIIB strain) infection of MT-4 human T-lymphoid cells in 10% FBS, and according to the methods disclosed by J. P. Vacca et al, “L-735,524: An orally bioavailable human immunodeficiency virus type 1 protease inhibitor,” Proc. Natl. Acad. Sci. USA, Vol. 91, pp. 4096-4100 (April 1994).

For another assay, the target named is T1, wildtype HIV-1 protease (Human immunodeficiency virus type 1 group M subtype B, UniProt P04585).
T1 construct: the wildtype HIV-1 protease (which was expressed in Escherichia coli); made in house; host or cells: Escherichia coli
Description: Assay for inhibition of microbial expressed HIV protease (Pepcleav). In kind it is biochemical. The following applies: wild type HIV-1 protease expressed in E. coli, peptide substrate, pH 5.5; mean of at least two independent experiments; read-out: Pepcleav. The method in brief:
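Cleavage of 400 μM peptide substrate Val-Ser-Gln-Asn-(βnaphthyl)Ala-Pro-Ile-Val by 20 pM wild-type enzyme (E. coli-expressed) ran 1 h at 30 °C after 30 min inhibitor preincubation, pH 5.5 acetate buffer. Inhibition derived from product peak area by C18 LC with multiple-reaction-monitoring MS after formic acid quench.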

Molecule `N[C@H](C(=O)Nc1cncc(F)c1CC[C@@H]1CN[C@H](COC(=O)NCC(F)(F)F)CO1)[C@@H](c1ccc(Cl)cc1)c1cc(F)cc(F)c1` [Example 97, (βS)-β-(4-Chlorophenyl)-3,5-difluoro-N-(5-fluoro-4-{2-[(2R,5S)-5-({[(2,2,2-trifluoroethyl)carbamoyl]oxy}methyl)morpholin-2-yl]ethyl}pyridin-3-yl)-L-phenylalaninamide] showed an EC50 in the assay on HIV-1 (H9IIIB strain) of 17 nM. Moreover, on wildtype HIV-1 protease, the IC50 was determined as 0.8 nM.
The molecule `COC(=O)N[C@H](C(=O)Nc1cncc(F)c1CC[C@@H]1CN[C@H](COC(=O)NCC(F)(F)F)CO1)[C@H](c1ccccc1)c1ccc(Cl)cc1` [Example 107, (βR)-β-(4-Chlorophenyl)-N-(5-fluoro-4-{2-[(2R,5S)-5-({[(2,2,2-trifluoroethyl)carbamoyl]oxy}methyl)morpholin-2-yl]ethyl}pyridin-3-yl)-Nα-(methoxycarbonyl)-L-phenylalaninamide] had an EC50 in the assay on HIV-1 (H9IIIB strain) of 11 nM. The IC50 on wildtype HIV-1 protease turned out to be 0.3 nM.
Taken in the same sequence, the figures for `NC(=O)OC[C@@H]1CO[C@H](CCc2c(F)cccc2NC(=O)[C@@H](N)C(c2ccc(F)cc2)c2ccc(F)cc2)CN1` [Example 116, N-[2-(2-{(2R,5S)-5-[(Carbamoyloxy)methyl]morpholin-2-yl}ethyl)-3-fluorophenyl]-4-fluoro-β-(4-fluorophenyl)-L-phenylalaninamide] were 47 nM and 17 nM.
Taken in the same sequence, the figures for `COC(=O)N[C@H](C(=O)Nc1cccc(F)c1CC[C@@H]1CN[C@H](COC(=O)NCC(C)(C)O)CO1)C(c1ccc(F)cc1)c1ccc(F)cc1` [Example 121, 4-Fluoro-N-(3-fluoro-2-{2-[(2R,5S)-5-({[(2-hydroxy-2-methylpropyl)carbamoyl]oxy}methyl)morpholin-2-yl]ethyl}phenyl)-β-(4-fluorophenyl)-Nα-(methoxycarbonyl)-L-phenylalaninamide] were 10 nM and 2.5 nM.
As for `CC1(CNC(=O)OC[C@@H]2CO[C@H](CCc3c(F)cncc3NC(=O)[C@@H](N)C(c3ccc(F)cc3)c3ccc(F)cc3)CN2)CCCO1` (stereo partly drawn) [Example 123, 4-Fluoro-N-[5-fluoro-4-(2-{(2R,5S)-5-[({[(2-methyltetrahydrofuran-2-yl)methyl]carbamoyl}oxy)methyl]morpholin-2-yl}ethyl)pyridin-3-yl]-β-(4-fluorophenyl)-L-phenylalaninamide], the EC50 in the assay on HIV-1 (H9IIIB strain) amounted to 19 nM. Further, the IC50 at wildtype HIV-1 protease amounted to 3.2 nM.
In the same order, the values of `COC(=O)N[C@H](C(=O)Nc1cccc(F)c1CC[C@@H]1CN[C@H](COC(=O)NCC(F)(F)F)CO1)[C@@H](c1ccc(F)cc1)C1CCOCC1` [Example 130, (βR)-4-Fluoro-N-(3-fluoro-2-{2-[(2R,5S)-5-({[(2,2,2-trifluoroethyl)carbamoyl]oxy}methyl)morpholin-2-yl]ethyl}phenyl)-Nα-(methoxycarbonyl)-β-(tetrahydro-2H-pyran-4-yl)-L-phenylalaninamide] are 26 nM and 68 nM.
In the same order, the values of `CC(C)COC(=O)N[C@H](C(=O)Nc1cncc(F)c1CC[C@@H]1CN[C@H](COC(=O)NCC(F)(F)F)CO1)C(c1ccc(F)cc1)c1ccc(F)cc1` [Example 140, 4-Fluoro-β-(4-fluorophenyl)-N-(5-fluoro-4-{2-[(2R,5S)-5-({[(2,2,2-trifluoroethyl)carbamoyl]oxy}methyl)morpholin-2-yl]ethyl}pyridin-3-yl)-Nα-[(2-methylpropoxy)carbonyl]-L-phenylalaninamide] are 21 nM and 2.1 nM.
Turning to `O=C(CC(c1ccccc1)c1ccccc1)Nc1cncc(F)c1CC[C@@H]1CN[C@H](COC(=O)NCC(F)(F)F)CO1` [Example 146, [(3S,6R)-6-(2-{3-[(3,3-diphenylpropanoyl)amino]-5-fluoropyridin-4-yl}ethyl)morpholin-3-yl]methyl (2,2,2-trifluoroethyl)carbamate], the EC50 with HIV-1 (H9IIIB strain) was found to be 47 nM. The IC50 at wildtype HIV-1 protease turned out to be 13 nM.
Taken in the same sequence, the figures for `O=C(C[C@@H](c1ccc(F)cc1)c1cc(F)cc(F)c1)Nc1cccc(F)c1CC[C@@H]1CN[C@H](COC(=O)NCC(F)(F)F)CO1` [Example 147, {(3S,6R)-6-[2-(2-{[(3S)-3-(3,5-difluorophenyl)-3-(4-fluorophenyl)propanoyl]amino}-6-fluorophenyl)ethyl]morpholin-3-yl} methyl (2,2,2-trifluoroethyl)carbamate] were 120 nM and 4.9 nM.
In the assay with HIV-1 (H9IIIB strain), `O=C(C[C@@H](c1ccc(F)cc1)C1CCCCC1)Nc1cncc(F)c1CC[C@@H]1CN[C@H](COC(=O)NCC(F)(F)F)CO1` [Example 148, {(3S,6R)-6-[2-(3-{[(3R)-3-cyclohexyl-3-(4-fluorophenyl)propanoyl]amino}-5-fluoropyridin-4-yl)ethyl]morpholin-3-yl}methyl (2,2,2-trifluoroethyl)carbamate] displayed an EC50 of 150 nM. Besides, the IC50 at wildtype HIV-1 protease turned out to be 22 nM.
In the same order, the values of `O=C(C[C@@H](c1ccc(F)cc1)c1cc(F)ccc1F)Nc1cncc(F)c1CC[C@@H]1CN[C@H](COC(=O)NCC(F)(F)F)CO1` [Example 149, {(3S,6R)-6-[2-(3-{[(3S)-3-(2,5-difluorophenyl)-3-(4-fluorophenyl)propanoyl]amino}-5-fluoropyridin-4-yl)ethyl]morpholin-3-yl}methyl (2,2,2-trifluoroethyl)carbamate] are 14 nM and 1.4 nM.
Taken in the same sequence, the figures for `O=C(C[C@H](c1ccccc1)c1ccc(Cl)cc1)Nc1cccc(F)c1CC[C@@H]1CN[C@H](COC(=O)NCC(F)(F)F)CO1` [Example 150, {(3S,6R)-6-[2-(2-{[(3R)-3-(4-chlorophenyl)-3-phenylpropanoyl]amino}-6-fluorophenyl)ethyl]morpholin-3-yl}methyl (2,2,2-trifluoroethyl) carbamate] were 130 nM and 11 nM.
For the molecule `COc1ccc([C@H](CC(=O)Nc2cccc(F)c2CC[C@@H]2CN[C@H](COC(=O)NCC(F)(F)F)CO2)c2ccc(F)cc2)cc1` [Example 151, {(3S,6R)-6-[2-(2-fluoro-6-{[(3S)-3-(4-fluorophenyl)-3-(4-methoxy-phenyl)propanoyl]amino}phenyl)ethyl]morpholin-3-yl}methyl (2,2,2-trifluoroethyl)carbamate], it took 290 nM to reach a half-maximal effect in the assay with HIV-1 (H9IIIB strain) (EC50). For the same molecule, the IC50 on wildtype HIV-1 protease worked out at 100 nM.
Take `O=C(C[C@H](c1ccc(F)cc1)c1ccc(Cl)cc1)Nc1cccc(F)c1CC[C@@H]1CN[C@H](COC(=O)NCC(F)(F)F)CO1` [Example 154, {(3S,6R)-6-[2-(2-{[(3R)-3-(4-chlorophenyl)-3-(4-fluorophenyl)propanoyl]amino}-6-fluoro-phenyl)ethyl]morpholin-3-yl}methyl (2,2,2-trifluoroethyl)carbamate]: the response with HIV-1 (H9IIIB strain) was half-maximal at 150 nM (EC50). Besides, the IC50 on wildtype HIV-1 protease was found to be 5.1 nM.
With `O=C(C[C@H](c1ccc(F)cc1)c1ccc(Br)cc1)Nc1cccc(F)c1CC[C@@H]1CN[C@H](COC(=O)NCC(F)(F)F)CO1` [Example 155, {(3S,6R)-6-[2-(2-{[(3R)-3-(4-bromophenyl)-3-(4-fluorophenyl)propanoyl]amino}-6-fluoro-phenyl)ethyl]morpholin-3-yl}methyl (2,2,2-trifluoroethyl)carbamate], in the assay with HIV-1 (H9IIIB strain), a half-maximal effect (EC50) was put at 58 nM. Besides, the IC50 at wildtype HIV-1 protease amounted to 6.1 nM.
Consider `NC(=O)OC[C@@H]1CO[C@H](CCc2c(F)cccc2NC(=O)C[C@@H](c2ccc(F)cc2)c2ccc(F)cc2F)CN1` [Example 156, {(3S,6R)-6-[2-(2-{[(3S)-3-(2,4-difluorophenyl)-3-(4-fluorophenyl)propanoyl]amino}-6-fluoro-phenyl)ethyl]morpholin-3-yl}methyl carbamate], for which the EC50 with HIV-1 (H9IIIB strain) is 26 nM. In addition, the IC50 at wildtype HIV-1 protease came to 10 nM.
Taken in the same sequence, the figures for `NC(=O)OC[C@@H]1CO[C@H](CCc2c(F)cccc2NC(=O)C[C@@H](c2ccc(F)cc2)c2ccncc2F)CN1` [Example 157, {(3S,6R)-6-[2-(2-fluoro-6-{[(3S)-3-(4-fluorophenyl)-3-(3-fluoropyridin-4-yl)propanoyl]amino}phenyl)ethyl]morpholin-3-yl}methyl carbamate] were 18 nM and 9.6 nM.
In turn, `O=C(C[C@H](c1ccc(F)cc1)c1cncc(F)c1)Nc1cccc(F)c1CC[C@@H]1CN[C@H](COC(=O)NCC(F)(F)F)CO1` [Example 161, {(3S,6R)-6-[2-(2-fluoro-6-{[(3R)-3-(4-fluorophenyl)-3-(5-fluoropyridin-3-yl)propanoyl]amino}phenyl)ethyl]morpholin-3-yl}methyl (2,2,2-trifluoroethyl)carbamate] displayed an EC50 in the assay on HIV-1 (H9IIIB strain) of 70 nM. Further, the IC50 at wildtype HIV-1 protease came out at 12 nM.
Turning to `CS(=O)(=O)c1cccc([C@@H](CC(=O)Nc2cccc(F)c2CC[C@@H]2CN[C@H](COC(=O)NCC(F)(F)F)CO2)c2ccc(Cl)cc2)c1` [Example 164, [(3S,6R)-6-{2-[2-({(3S)-3-(4-chlorophenyl)-3-[3-(methylsulfonyl)phenyl]propanoyl}amino)-6-fluorophenyl]ethyl}morpholin-3-yl] methyl (2,2,2-trifluoroethyl)carbamate], in the assay with HIV-1 (H9IIIB strain), the response was half-maximal at 63 nM (EC50). The IC50 at wildtype HIV-1 protease is 3.4 nM.
Taken in the same sequence, the figures for `CCC(CO)NC(=O)OC[C@@H]1CO[C@H](CCc2c(F)cncc2NC(=O)CC(c2ccc(F)cc2)c2ccc(F)cc2)CN1` (stereo partly drawn) [Example 165, {(3S,6R)-6-[2-(3-{[3,3-bis(4-fluorophenyl)propanoyl]amino}-5-fluoropyridin-4-yl)ethyl]morpholin-3-yl}methyl [1-(hydroxy-methyl)propyl]carbamate] were 40 nM and 4.5 nM.

Values taken from patent US9315475B2 (MERCK SHARP & DOHME CORP., priority 2011, dated 2016).
